The EC50 is the concentration needed to bring the measured effect to its halfway point.

Like-named read-outs stand apart in the source and are kept apart here.

The source of these data is patent US20180085386A1, “URIDINE MONOPHOSPHATE AND TRIPHOSPHATE DERIVATIVES, COMPOSITIONS AND METHODS OF USE” (Tufts University, priority 2016, published 2018).

One data set concerns THP-1 cells. Kind of data set: Cytokine release from human THP-1 cells (multiplex analysis of culture medium). Type of data set: cell-based. Particulars: 24 hours, vs vehicle. The procedure:
THP-1 cells, a human cell line derived from monocytes, were treated in vitro with vehicle, the P2Y6 receptor antagonist MRS 2578, or compound 5, singly or in combination. THP-1 cells were seeded in 24 well plates at a density of 4×10^5 cells/well in culture medium for 24 hours. Thereafter, vehicle, compound 5, or MRS 2578 (singly or in combination) were added to the cultures for 24 hours. Subsequently the culture medium was aspirated and subjected to multiplex cytokine analysis. Data are presented as means+/−sem. MRS 2578 has a molecular weight of about 472 and is also described using CAS number 711019-86-2.

In the next data set the target is T1, P2Y2 receptor (Homo sapiens, UniProt P41231).
T1 construct: expressed in transfected cells; host or cells: 1321N1 human astrocytoma cells
Description: Ca2+ mobilizing effect (fluo-4) in 1321N1 cells expressing P2Y2 receptor. Type of data set: cell-based. The procedure: (§1) Nucleoside disphosphate analogs of the foregoing compounds were tested for activation of P2Y6 receptor by measuring receptor induced Ca^2+ changes with the fluorescent Ca^2+ indicator fluo-4. 1321N1 human astrocytoma cell lines either expressing P2Y2, P2Y4 or P2Y6 receptors were plated into 24-well plates. Two days after plating, fluorometric measurements were made and responses of cells to a serial dilution of compound were determined. P2Y6 receptor mediated Ca^2+ fluorescent change was determined by normalized accumulation of fluorescent change of 3 timepoints after compound administration subtracted by value from ACSF control. Changes in fluorescent intensity were plotted corresponding to compound concentration in GraphPad. Dose-response curve and EC50 for each compound was estimated using nonlinear curve fit and Sigmoidal dose-response analysis. […]
(§2) Synthetic compounds were tested for activation of P2Y6 receptor by measuring receptor induced Ca^2+ changes with the fluorescent Ca^2+ indicator fluo-4, and results are shown in FIGS. 3(A)-(K). […] Two days after plating, fluorometric measurements were made and responses of cells to a serial dilution of compound were determined. P2Y6 receptor mediated Ca^2+ fluorescent change was determined by normalized accumulation of fluorescent change of 3 timepoints after compound administration subtracted by value from ACSF control. […]

Another data set addresses T2, P2Y4 receptor (Homo sapiens, UniProt P51582).
T2 construct: expressed in transfected cells; host or cells: 1321N1 human astrocytoma cells
Kind of data set: Ca2+ mobilizing effect (fluo-4) in 1321N1 cells expressing P2Y4 receptor. Type of data set: cell-based. The procedure:
as §1, §2

In data set [1] the target is T3, P2Y6 receptor (Homo sapiens, UniProt Q15077). Kind of data set: Activation of P2Y6 receptor: receptor induced Ca2+ changes with fluo-4 in 1321N1 cells. Type of data set: cell-based. More on the design: expressed in transfected cells; host or cells: 1321N1 human astrocytoma cells. The procedure: as §1, §2
Data set [2] deals with PSAPP mice. Kind of data set: Plaque load in cortex and hippocampus by amyloid beta immunostaining. It is filed as in vivo, mouse. Particulars: for immunoreactivity of β1-40 in cortex: FIG. 2A; for immunoreactivity of β1-40 in hippocampus: FIG. 2B. The procedure:
PSB0474 was systemically administered to PSAPP mice via intraperitoneal injection for 2, 4 and 6 consecutive days. In one group, prior to evaluation and following to administration for 6 consecutive days, treatment was suspended for two weeks (6+2 weeks group). Brains were then fixed and plaque load was evaluated by immunostaining with the amyloid beta specific antibodies: β1-40 and β1-42. Representative images of plaque load in cortex and hippocampus from animals that received injections of PSB0474 according to the foregoing injection schedules are shown in FIGS. 1(A)-(D). […] Whereas, when administration of PSB0474 was stopped for 2 weeks following six consecutive days of treatment (denoted as the 6+2 weeks group), β1-40 staining rebounded; although to a level lower than observed in mice treated with saline as a vehicle control. […] FIGS. 2C-2F depict data obtained following administration of different dosages of PSB0474.
To generate these graphs showing plaque load, mice were euthanized, brain sections cut and antibodies directed against Aβ42 were used to disclose Aβ plaques. Images were acquired digitally and an algorithm was applied to threshold the image so that plaques were isolated from the background. The algorithm then calculated the percent area of the field of view occupied by the plaques.
Brain samples were collected for Abeta analysis with immunostaining. Brains samples were collected after transcardial perfusion with phosphate buffer and 4% paraformaldehyde. Floating brain sections (40 micron) were collected using a microtome. Immunostaining for […] and Aβ42 were performed according to previously established protocol. Images with DAB staining were collected with brightfield microscopy and analyzed with ImageJ Macro. All data analysis and statistics were performed in GraphPad Prism 6.0.
(§3) In this study, treatment of PSAPP mice commenced when the mice were pre-symptomatic. Specifically, treatment was initiated when the mice were approximately 3 months old. PSAPP mice were treated for 100 days with daily, intraperitoneal injections of 10 μg/kg of compound 5 or vehicle. Following treatment, mice were assessed in a fear conditioning task for memory formation. Subsequently, plaque burden in the mice was also evaluated. The data provided in Examples 16 and 17 is for 19 vehicle treated mice and 22 compound treated mice. The data provided for the vehicle-treated group is the average across those mice, and error bars depict the standard error (SEM). Similarly, the data provided for the compound-treated group is the average across those mice, and the error bars depict the SEM.
as §3, with “assessed for the following: concentration of circulating pro-inflammatory cytokines; amyloid beta load (e.g., plaque burden); and memory” for “assessed”, “formation.” for “formation. Subsequently, plaque burden in the mice was also evaluated.”, “Example 18” for “Examples 16 and 17”, “18” for “19”, “20” for “22”, “SEM. Mice were first evaluated in the fear conditioning task experiment. Subsequently, plasma was taken for multiplex cytokine analysis of circulating levels of cytokine in the plasma. Finally, plaque burden was assessed in the cortex and hippocampus of the mice.” for “SEM.”
In this study, treatment of PSAPP mice commenced after the mice were already symptomatic. Specifically, treatment was initiated when the mice were approximately 6 months old. […]

The target of data set [3] is T3, P2Y6 receptor. Particulars: cited from earlier work.
Data set [4] deals with PSAPP mice. Kind of data set: Tolerability of increased dose of PSB0474 in PSAPP mice. Type of data set: in vivo, mouse. Particulars: 1000× increase in dose.

T3 sequence (Q15077 whole entry): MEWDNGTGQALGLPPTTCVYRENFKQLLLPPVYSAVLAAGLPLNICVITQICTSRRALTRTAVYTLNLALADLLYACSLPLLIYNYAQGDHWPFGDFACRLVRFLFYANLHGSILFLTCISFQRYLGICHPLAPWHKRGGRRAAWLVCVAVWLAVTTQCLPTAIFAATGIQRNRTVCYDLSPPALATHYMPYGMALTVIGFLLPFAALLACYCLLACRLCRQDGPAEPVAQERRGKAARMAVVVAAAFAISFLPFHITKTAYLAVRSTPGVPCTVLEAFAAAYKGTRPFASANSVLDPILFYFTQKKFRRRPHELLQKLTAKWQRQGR
T2 sequence (P51582 whole entry): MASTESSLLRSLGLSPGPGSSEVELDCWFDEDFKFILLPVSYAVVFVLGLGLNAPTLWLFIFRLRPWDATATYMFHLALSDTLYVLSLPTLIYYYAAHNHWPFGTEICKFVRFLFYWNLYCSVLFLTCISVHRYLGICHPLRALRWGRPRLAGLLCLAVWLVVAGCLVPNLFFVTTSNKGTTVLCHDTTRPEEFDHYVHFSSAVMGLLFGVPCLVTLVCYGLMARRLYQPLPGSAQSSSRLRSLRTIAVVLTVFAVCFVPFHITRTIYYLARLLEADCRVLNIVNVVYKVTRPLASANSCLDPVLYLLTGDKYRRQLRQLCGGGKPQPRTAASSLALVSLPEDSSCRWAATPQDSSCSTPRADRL
T1 sequence (P41231 whole entry): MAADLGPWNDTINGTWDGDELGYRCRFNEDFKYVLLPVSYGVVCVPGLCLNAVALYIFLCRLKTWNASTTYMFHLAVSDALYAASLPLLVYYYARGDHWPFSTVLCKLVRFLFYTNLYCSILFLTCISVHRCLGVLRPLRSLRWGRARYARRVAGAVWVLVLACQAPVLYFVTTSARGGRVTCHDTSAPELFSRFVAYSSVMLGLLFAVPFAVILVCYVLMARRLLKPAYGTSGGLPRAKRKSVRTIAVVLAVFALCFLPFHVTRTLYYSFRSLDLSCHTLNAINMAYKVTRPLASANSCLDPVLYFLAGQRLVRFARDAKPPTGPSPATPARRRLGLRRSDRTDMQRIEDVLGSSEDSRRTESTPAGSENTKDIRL

On to `S=C=Nc1cccc(NC(=S)NCCCCNC(=S)Nc2cccc(N=C=S)c2)c1` [MRS 2578], for which the “release of fractalkine into culture media” value with THP-1 cells (FIG. 18A) is reported as “increased”. The “release of PDGF-BB into culture media” value in the data set on THP-1 cells (FIG. 18B) is on record as “increased”. Further, the “release of IL-7 into culture media” value with THP-1 cells (MRS 2578 alone, FIG. 18C, FIG. 19) is on record as “increased”.

Take `O=c1ccn(C2OC(COP(=O)(O)OP(=O)(O)O)C(O)[C@@H]2O)c(=O)n1Cc1noc2ccccc12` (stereo partly shown): the “elevating Ca^2+ levels in P2Y2 receptor expressing cells” value at P2Y2 receptor was “not effective”. Besides, the “elevating Ca^2+ levels in P2Y4 receptor expressing cells” value on P2Y4 receptor is “not effective”. Also, the EC50 on P2Y6 receptor [1] (1321N1 human astrocytoma cells expressing P2Y6, fluo-4 Ca2+ fluorescence) was found to be 12 nM. For the same compound, the “ability to elevate Ca^2+ signals in P2Y6 receptor expressing cells” value at P2Y6 receptor [1] (with addition of the P2Y6 antagonist MRS2578) was “attenuated”.

For the compound `O=C(Cn1c(=O)ccn([C@@H]2O[C@H](COP(=O)(O)OP(=O)(O)O)[C@@H](O)[C@H]2O)c1=O)c1ccccc1` [3-phenacyl-UDP, reference compound], the β1-40 staining result with PSAPP mice [2] (6 consecutive days, then stopped for 2 weeks (6+2 weeks group), still lower than saline control) is “rebounded”. The “effects on the efficacy endpoint (plaque load)” value in the data set on PSAPP mice [2] (higher dose of 1 mg/kg, FIGS. 2C-2F) is “smaller effects”. In the data set with PSAPP mice [2] (i.p. for 4 consecutive days), the “immunoreactivity of β1-40 in cortex” value is reported as “significantly decreased” and the “immunoreactivity of β1-40 in hippocampus” value is recorded as “significantly decreased”. Besides, in the data set on PSAPP mice [2] (i.p. for 6 consecutive days), the “immunoreactivity of β1-40 in cortex” value is “significantly decreased” and the “immunoreactivity of β1-40 in hippocampus” value is “significantly decreased”. Besides, the EC50 on P2Y6 receptor [3] (P2Y6 receptor agonist) is 70 nM. Also, on P2Y6 receptor [3], the “selectivity for P2Y6 receptor” value was > 500 fold. In addition, the “detrimental effects to the animal” value in the data set on PSAPP mice [4] is “did not cause detrimental effects”.
